# In patent US7521563B2, “Hydroxamic acid derivative and medicine containing the same as active ingredient” (Shizuoka Coffein Co., Ltd., priority 2004, dated 2009):
# Columns and labels:
# TNFα production = TNFα production suppression test in LPS-stimulated PMA-differentiated THP-1 cells (ELISA); assay type: cell-based, Human; conditions: for TNFα production suppression rate (%): THP-1 cells, LPS 1 μg/mL, 24 hours
# Experimental: (§1) Tests were conducted with reference to the method by G. Lozanski et al. (J. Rheumatol., Vol. 19, 921-926, 1992).
# (§2) Using a 10% fetal calf serum (FCS)-added PRMI-1640 medium, THP-1 cells (Dainippon Pharmaceutical Co., Ltd.) were prepared in an amount of 10^6/mL, and inoculated on a 48-well microplate in an amount of 500 μL per well. 10^−8 M of phorbol 12-myristate 13-acetate (PMA) was added to the wells, and the cells were cultured for 24 hours to induce differentiation of the cells to macrophages.
# (§3) 50 μL of test substance diluting liquid or DMSO diluting liquid was added to the wells, and the cells were preincubated by a CO2 incubator at 37° C. for 30 minutes. 5 μL of LPS (111 μg/mL) (final concentration: 1 μg/mL) was added to each well. Furthermore, wells with no LPS added to the DMSO diluting liquid were set. After the cells were cultured for 24 hours, they were centrifuged to take cell supernatants, and the IL-6 level was measured using the Human IL-6 ELISA kit (Biosource International), and TNFα was measured using the Human tumor necrosis factor-α ELISA kit (Biosource International), by the enzyme-linked immunosorbent assay (ELISA).
# IL-6 production = IL-6 production suppression test in LPS-stimulated PMA-differentiated THP-1 cells (ELISA); assay type: cell-based, Human; conditions: for IL-6 production suppression rate (%): THP-1 cells, LPS 1 μg/mL, 24 hours
# Experimental: as §1, §2, §3
# THP-1 cells = test: Evaluation of cytotoxicity by the MTT method; assay type: cell-based; conditions: DMSO well = 100%
# Experimental: Cytotoxicity was evaluated by the MTT method.
# Specifically, a 0.5 mg/mL solution of 3-(4,5-dimethyl-2-thiazolyl)-2,5-diphenyl-2H-tetrazolium bromide (MTT, Sigma) prepared in a 10% fetal calf serum (FCS)-added PRMI-1640 medium was added in an amount of 100 μL per well to cells with culture supernatants removed in test example 1, and the cells were cultured for 3 hours. The culture solution was removed by centrifugal separation, 100 μL of methanol was added to each well, and the absorbance was measured at a wavelength of 570 nm after cytolysis.
# The absorbances for the well to which the DMSO diluting liquid was added and the well to which no LPS was added are 100% and 0%, respectively, the absorbances for wells of different doses of test substances are expressed as percentages, and the results are shown in Table 4.
# [1] = range of concentrations 1×10^−5-−9 M
# [2] = active concentration 1 × 10^−6 M
# [3] = concentration 1 × 10^−9 M (first column)
# [4] = concentration 1 × 10^−9 M (second column, as printed)
# [5] = active concentration 1 × 10^−7 M
Compound,TNFα production suppressing activity (TNFα production; [1]),IL-6 production suppressing activity (IL-6 production; [1]),TNFα production suppression rate (%) (TNFα production; [2]),"Cytotoxicity test: absorbance (570 nm, MTT) expressed as percentage (THP-1 cells; concentration 1 × 10^−5 M)","Cytotoxicity test: absorbance (570 nm, MTT) expressed as percentage (THP-1 cells; concentration 1 × 10^−6 M)","Cytotoxicity test: absorbance (570 nm, MTT) expressed as percentage (THP-1 cells; concentration 1 × 10^−7 M)","Cytotoxicity test: absorbance (570 nm, MTT) expressed as percentage (THP-1 cells; [3])","Cytotoxicity test: absorbance (570 nm, MTT) expressed as percentage (THP-1 cells; [4])",TNFα production suppression rate (%) (TNFα production; [5]),IL-6 production suppression rate (%) (IL-6 production; [2]),IL-6 production suppression rate (%) (IL-6 production; [5])
"O=C(O)CCCCCc1nc(-c2ccccc2)c(-c2ccccc2)o1 [4,5-diphenyl-2-oxazolehexanoic acid, reference compound]",no activity,no activity,,,,,,,,,
"O=C(CCCCCc1nc(-c2ccccc2)c(-c2ccc(F)cc2)s1)NO [Example 8, 5-(4-fluorophenyl)-N-hydroxy-4-phenyl-2-thiazolehexanamide]",,,40%,88.9%,113.7%,106.7%,106.7%,105.3%,,,
"O=C(CCCCCc1ncc(-c2ccc(Br)cc2)s1)NO [Example 20, 5-(4-bromophenyl)-N-hydroxy-2-thiazolehexanamide]",,,,82.3%,97.6%,102.0%,95.6%,104.0%,44%,64%,
"O=C(CCCCCCc1nc(-c2ccccc2)c(-c2ccccc2)o1)NO [Example 24, N-hydroxy-4,5-diphenyl-2-oxazoleheptanamide]",,,,83.8%,91.8%,88.1%,96.4%,83.9%,,,50%
"O=C(CCCCCc1nc(-c2ccccc2)c(-c2ccccc2)o1)NO [Example 25, N-hydroxy-4,5-diphenyl-2-oxazolehexanamide]",,,,78.9%,83.6%,87.6%,85.8%,91.9%,,,50%
